No end group written: not given here.

Test [1] deals with children diagnosed with Autism. The conditions noted are these: secretin given as diagnostic procedure during upper gastrointestinal endoscopy (Horvath et al. 1998); cited from earlier work.
The subject of test [2] is children diagnosed as having autism. Description: Experiment 1: Fecal Chymotrypsin Test after secretin infusion. Format: in vivo, human (children). Conditions: each of 16 autistic children; approximately one week after first secretin infusion, 1 U/kg IV. How it is done:
(§1) In this experiment, 16 children diagnosed as having autism were administered the following Fecal Chymotrypsin Test in accordance with an embodiment of the invention. First, approximately 2 grams of stool were collected from each child and placed in a sterile container (although it is to be understood that any quantity of stool may be collected, as 2 grams of stool is not a required amount). Each stool sample was then analyzed using, e.g., an enzymatic photospectrometry analysis as is known by those skilled in the art, to determine the level of fecal chymotrypsin in the stool. Although the enzymatic photospectrophotometry process is preferred, any suitable conventional method may be used for measuring the fecal chymotrypsin levels. The measured chymotrypsin levels of the 16 autistic children are illustrated in FIG. 13.
After determining the chymotrypsin levels of the stools, each of these levels were compared with threshold chymotrypsin levels to determine if the child was likely to benefit from secretin administration. […]
The results of Experiment 1 are illustrated in FIGS. 1-14. For instance, approximately one week after the first secretin infusion, the fecal chymotrypsin level of each of the 16 autistic children was measured again. […]

The test system is the same in test [3]. Description: Experiment 1: CARS (Childhood Autism Rating Scale) test pre/post secretin. Format: in vivo, human (children). The conditions noted are these: 16 autistic children. Here is the method: Upon determining that a given child was likely to benefit from secretin administration based on the results of the fecal chymotrypsin test, the child was administered a CARS (Childhood Autism Rating Scale) test prior to being scheduled for secretin infusion.
For each of the 16 autistic children tested, a preferred secretin infusion process according to the present invention was performed involving the administering of 1 U/kg of body weight of Secretin-Ferring for a period of nine months at intervals of approximately 6 weeks. In addition, another CARS test was administered to each of the 16 autistic children 3 weeks post secretin administration to determine if their autism had changed post infusion.
A preferred secretin infusion process includes the initial step of prepping an arm of the candidate child with an IV injection of saline. A test dose of 1 U of Secretin-Ferring is then administered to the child. Approximately one minute after infusion, the child is examined for signs of allergic reaction including rash, increased heart rate, and increase of blood pressure. […] Subsequently, each child receives a 1U/kg of body weight infusion of Secretin-Ferring approximately every 6 weeks for 9 months. It is to be understood that any commercially available form of secretin may be used. […]

Test [4] concerns autistic children with abnormal fecal chymotrypsin levels. Description: Experiment 2: fecal chymotrypsin levels during 6 months of secretin administration. Format: in vivo, human (children). The conditions noted are these: of 37 children, 6 months post-secretin administration. Here is the method: as §1
After determining the chymotrypsin levels of the stools, each of these levels were compared with threshold chymotrypsin levels to determine if the child was likely to benefit from secretin administration. By way of example, with the fecal chymotrypsin tests of the stool samples being performed at 30° C. normal levels of chymotrypsin are deemed to lie above 8.4 U/gram, whereas pathologically abnormal levels are deemed to lie below 4.2 U/gram. In addition, chymotrypsin levels between 8.4 U/gram and 4.2 U/gram are considered equivocal, and further testing of the individual's fecal chymotrypsin levels over a period of time should be performed.
A preferred secretin infusion process includes the initial step of prepping an arm of the candidate child with an IV injection of saline. A test dose of 1 U of Secretin-Ferring is then administered to the child. […]
In this experiment, 37 autistic children with abnormal fecal chymotrypsin levels were administered secretin over the course of 6 months using the secretin infusion process described above. Their fecal chymotrypsin (FC) levels were measured weekly using the fecal chymotrypsin test described above.

For “secretin (HSDGTFTSELSRLRDSARLQRLLQGLV; ends and bridges not checked; UniProt P63298 33-59, looked up) [gastrointestinal peptide hormone]”, the “symptoms associated with Autism after secretin administration” value in test [1] is “ameliorating the symptoms”. Further, the “fecal chymotrypsin level post-secretin administration compared with pre-secretin” value in test [2] is on record as “increased”. The “CARS component scores (all except fear)” value in test [3] (3 weeks post infusion) is “improvement”. Also, the “CARS scores, overall change” value in test [3] (approximately 3 weeks after first secretin administration vs pre-secretin) is listed as “overall decrease”. In test [4] (pre-secretin 0), the “# Autistic Children w/Equivocal FC levels” value is 2 and the “# Autistic Children w/normal FC levels” value was 34. Besides, the “# Autistic Children w/Abnormal FC levels” value in test [4] (pre-secretin 37) amounted to 1.

The record behind these values is patent US6632429B1, “Methods for treating pervasive development disorders” (priority 1999, dated 2003).
